Measurements: US20070142356A1, “Association of a sinus node If curent inhibitor and a calcium inhibitor, and pharmaceutical compositions containing it” (LES LABORATOIRES SERVIER, priority 2005, published 2007)

System: patients being treated with dihydropyridine type calcium antagonists who still complained of painful angina pectoris attacks
Test: Clinical studies 019 and 021: angina attacks in patients on dihydropyridines given concomitant ivabradine
Assay type: in vivo
Conditions: for Change in the number of angina pectoris attacks, %: after 1 year of ivabradine versus inclusion; for Number of angina pectoris attacks (per week), after treatment: patients on dihydropyridines on inclusion, ivabradine for 1 year
Excerpt: Two clinical studies carried out in patients being treated with dihydropyridine type calcium antagonists who still complained of painful angina pectoris attacks (despite the calcium antagonist) have shown that concomitant treatment with ivabradine makes it possible to reduce these attacks very substantially (by about 60%).

Structure (SMILES): COc1cc2c(cc1OC)CC(=O)N(CCCN(C)C[C@H]1Cc3cc(OC)c(OC)cc31)CC2 [ivabradine, 3-{3-[{[(7S)-3,4-dimethoxy-bicyclo[4.2.0]octa-1,3,5-trien-7-yl]methyl}(methyl)amino]propyl}-7,8-dimethoxy-1,3,4,5-tetrahydro-2H-3-benzazepin-2-one]
- Change in the number of angina pectoris attacks, % (Study 019, n = 27): −61.4%
- Number of angina pectoris attacks (per week), after treatment (Study 019, n = 27): 0.7 ± 1.3 per week
- Change in the number of angina pectoris attacks, % (Study 021, n = 114): −58.9%
- Number of angina pectoris attacks (per week), after treatment (Study 021, n = 114): 0.9 ± 2.9 per week
- Reduction of painful angina pectoris attacks (two clinical studies, ivabradine concomitant with dihydropyridine calcium antagonist): about 60%
